How the values were obtained:
Type in all cases: in vivo
green foxtail = assay: Test Example 3: weedkilling efficacy through soil treatment; E: green foxtail; conditions: soil treatment, treatment dosage 320 g/ha
Procedure, shortened: (§1)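 Crop and weed responses were judged three weeks after a uniform surface spray of the water-diluted emulsion at the given g/ha rate. Seeds sat beneath about 1.5 cm of sterilized diluvial soil, and boxes stood in a greenhouse at 25 to 30° C.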

transplanted rice = assay: Test Example 1: preemergent weed treatment in the submerged state, effect on crop; a: transplanted rice; conditions: treatment dosage 320 g/ha
Procedure, shortened: (§2)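 Alluvial soil in Wagner pots flooded to 4 cm; barnyard grass, bulrush and oval-leafed pondweed seeds sown, then 2.5-leaf rice seedlings transplanted. Same day, emulsified compound diluted in water to set g/ha dosages and applied to water surface; greenhouse 25–30 °C, effect scored by criteria after 3 weeks.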

barnyard grass [1] = assay: Test Example 3: weedkilling efficacy through soil treatment; F: barnyard grass; conditions: soil treatment, treatment dosage 320 g/ha
Procedure, shortened: as §1

oval-leafed pondweed [2] = assay: Test Example 1: weedkilling efficacy, preemergent weed treatment in the submerged state; C: oval-leafed pondweed; conditions: treatment dosage 320 g/ha
Procedure, shortened: as §2

bulrush [3] = assay: Test Example 2: weedkilling efficacy, growth period weed treatment in the submerged state; B: bulrush; conditions: treatment dosage 320 g/ha
Procedure, shortened: (§3)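 First, alluvial soil in pots is flooded to 4 cm and mixed seed is sown. Next, plants grow in a greenhouse at 25 to 30° C until the 1-2 leaf stage. Then diluted emulsion is applied onto the water surface at the given g/ha rate, and injury is assessed after 3 weeks.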

black-grass = assay: Test Example 3: weedkilling efficacy through soil treatment; H: black-grass; conditions: soil treatment, treatment dosage 320 g/ha
Procedure, shortened: as §1

Indian mallow = assay: Test Example 3: weedkilling efficacy through soil treatment; K: Indian mallow; conditions: soil treatment, treatment dosage 320 g/ha
Procedure, shortened: as §1

wild oat = assay: Test Example 3: weedkilling efficacy through soil treatment; G: wild oat; conditions: soil treatment, treatment dosage 320 g/ha
Procedure, shortened: as §1

barnyard grass [4] = assay: Test Example 2: weedkilling efficacy, growth period weed treatment in the submerged state; A: barnyard grass; conditions: treatment dosage 320 g/ha
Procedure, shortened: as §3

fig-leafed goosefoot = assay: Test Example 3: weedkilling efficacy through soil treatment; M: fig-leafed goosefoot; conditions: soil treatment, treatment dosage 320 g/ha
Procedure, shortened: as §1

catchweed = assay: Test Example 3: weedkilling efficacy through soil treatment; O: catchweed; conditions: soil treatment, treatment dosage 320 g/ha
Procedure, shortened: as §1

bulrush [5] = assay: Test Example 1: weedkilling efficacy, preemergent weed treatment in the submerged state; B: bulrush; conditions: treatment dosage 320 g/ha
Procedure, shortened: as §2

rapeseed = assay: Test Example 3: soil treatment, effect on crop; g: rapeseed; conditions: soil treatment, treatment dosage 320 g/ha
Procedure, shortened: as §1

crabgrass = assay: Test Example 3: weedkilling efficacy through soil treatment; D: crabgrass; conditions: soil treatment, treatment dosage 320 g/ha
Procedure, shortened: as §1

barnyard grass [6] = assay: Test Example 1: weedkilling efficacy, preemergent weed treatment in the submerged state; A: barnyard grass; conditions: treatment dosage 320 g/ha
Procedure, shortened: as §2

Italian ryegrass = assay: Test Example 3: weedkilling efficacy through soil treatment; I: Italian ryegrass; conditions: soil treatment, treatment dosage 320 g/ha
Procedure, shortened: as §1

beet = assay: Test Example 3: soil treatment, effect on crop; f: beet; conditions: soil treatment, treatment dosage 320 g/ha
Procedure, shortened: as §1

soybean = assay: Test Example 3: soil treatment, effect on crop; d: soybean; conditions: soil treatment, treatment dosage 320 g/ha
Procedure, shortened: as §1

oval-leafed pondweed [7] = assay: Test Example 2: weedkilling efficacy, growth period weed treatment in the submerged state; C: oval-leafed pondweed; conditions: treatment dosage 320 g/ha
Procedure, shortened: as §3

common wind-grass = assay: Test Example 3: weedkilling efficacy through soil treatment; J: common wind-grass; conditions: soil treatment, treatment dosage 320 g/ha
Procedure, shortened: as §1

birds-eye speedwell = assay: Test Example 3: weedkilling efficacy through soil treatment; p: birds-eye speedwell; conditions: soil treatment, treatment dosage 320 g/ha
Procedure, shortened: as §1

chickweed = assay: Test Example 3: weedkilling efficacy through soil treatment; N: chickweed; conditions: soil treatment, treatment dosage 320 g/ha
Procedure, shortened: as §1

corn = assay: Test Example 3: soil treatment, effect on crop; c: corn; conditions: soil treatment, treatment dosage 320 g/ha
Procedure, shortened: as §1

directly sown rice = assay: Test Example 3: soil treatment, effect on crop; b: directly sown rice; conditions: soil treatment, treatment dosage 320 g/ha
Procedure, shortened: as §1

redroot pigweed = assay: Test Example 3: weedkilling efficacy through soil treatment; L: redroot pigweed; conditions: soil treatment, treatment dosage 320 g/ha
Procedure, shortened: as §1

wheat = assay: Test Example 3: soil treatment, effect on crop; e: wheat; conditions: soil treatment, treatment dosage 320 g/ha
Procedure, shortened: as §1

| Structure (SMILES) | E: green foxtail, weedkilling efficacy grade (green foxtail) | a: transplanted rice, effect on crop grade (transplanted rice) | F: barnyard grass, weedkilling efficacy grade (barnyard grass [1]) | C: oval-leafed pondweed, weed kill grade (oval-leafed pondweed [2]) | B (bulrush) weedkilling efficacy grade (bulrush [3]) | H: black-grass, weedkilling efficacy grade (black-grass) | K: Indian mallow, weedkilling efficacy grade (Indian mallow) | G: wild oat, weedkilling efficacy grade (wild oat) | A (barnyard grass) weedkilling efficacy grade (barnyard grass [4]) | M: fig-leafed goosefoot, weedkilling efficacy grade (fig-leafed goosefoot) | O: catchweed, weedkilling efficacy grade (catchweed) | B: bulrush, weed kill grade (bulrush [5]) | g: rapeseed, effect on crop grade (rapeseed) | D: crabgrass, weedkilling efficacy grade (crabgrass) | A: barnyard grass, weed kill grade (barnyard grass [6]) | I: Italian ryegrass, weedkilling efficacy grade (Italian ryegrass) | f: beet, effect on crop grade (beet) | d: soybean, effect on crop grade (soybean) | C (oval-leafed pondweed) weedkilling efficacy grade (oval-leafed pondweed [7]) | J: common wind-grass, weedkilling efficacy grade (common wind-grass) | also measured |
| --- | --- | --- | --- | --- | --- | --- | --- | --- | --- | --- | --- | --- | --- | --- | --- | --- | --- | --- | --- | --- | --- |
| Cc1nsc(NC(=O)C(C)(C)N2COCN(c3ccccc3)C2=O)n1 [A-1-18] | 5 (weed kill ratio 90% or more, (practically complete withering)) | 2 (weed kill ratio 20% or more, less than 40%) | 4 (weed kill ratio 70% or more, less than 90%) | 5 (weed kill ratio 90% or more, (practically complete withering)) | 5 (weed kill ratio 90% or more, (practically complete withering)) | 5 (weed kill ratio 90% or more, (practically complete withering)) | 0 (weed kill ratio 5% or less (practically no effect)) | 4 (weed kill ratio 70% or more, less than 90%) | 3 (weed kill ratio 40% or more, less than 70%) | 4 (weed kill ratio 70% or more, less than 90%) | 0 (weed kill ratio 5% or less (practically no effect)) | 5 (weed kill ratio 90% or more, (practically complete withering)) | 4 (weed kill ratio 70% or more, less than 90%) | 5 (weed kill ratio 90% or more, (practically complete withering)) | 5 (weed kill ratio 90% or more, (practically complete withering)) | 5 (weed kill ratio 90% or more, (practically complete withering)) | 1 (weed kill ratio 5% or more, less than 20%) | 4 (weed kill ratio 70% or more, less than 90%) | 5 (weed kill ratio 90% or more, (practically complete withering)) | 5 (weed kill ratio 90% or more, (practically complete withering)) | P: birds-eye speedwell, weedkilling efficacy grade (birds-eye speedwell): 4 (weed kill ratio 70% or more, less than 90%); N: chickweed, weedkilling efficacy grade (chickweed): 2 (weed kill ratio 20% or more, less than 40%); c: corn, effect on crop grade (corn): 0 (weed kill ratio 5% or less (practically no effect)); b: directly sown rice, effect on crop grade (directly sown rice): 5 (weed kill ratio 90% or more, (practically complete withering)); L: redroot pigweed, weedkilling efficacy grade (redroot pigweed): 4 (weed kill ratio 70% or more, less than 90%); e: wheat, effect on crop grade (wheat): 0 (weed kill ratio 5% or less (practically no effect)) |
| Cc1nnc(NC(=O)C(C)(C)N2COCN(c3ccccc3)C2=O)s1 [A-1-13] | 3 (weed kill ratio 40% or more, less than 70%) | 3 (weed kill ratio 40% or more, less than 70%) | 3 (weed kill ratio 40% or more, less than 70%) | 5 (weed kill ratio 90% or more, (practically complete withering)) | 5 (weed kill ratio 90% or more, (practically complete withering)) | 5 (weed kill ratio 90% or more, (practically complete withering)) | 0 (weed kill ratio 5% or less (practically no effect)) | 3 (weed kill ratio 40% or more, less than 70%) | 3 (weed kill ratio 40% or more, less than 70%) | 3 (weed kill ratio 40% or more, less than 70%) | 0 (weed kill ratio 5% or less (practically no effect)) | 5 (weed kill ratio 90% or more, (practically complete withering)) | 4 (weed kill ratio 70% or more, less than 90%) | 3 (weed kill ratio 40% or more, less than 70%) | 5 (weed kill ratio 90% or more, (practically complete withering)) | 5 (weed kill ratio 90% or more, (practically complete withering)) | 1 (weed kill ratio 5% or more, less than 20%) | 0 (weed kill ratio 5% or less (practically no effect)) | 3 (weed kill ratio 40% or more, less than 70%) | 5 (weed kill ratio 90% or more, (practically complete withering)) | P: birds-eye speedwell, weedkilling efficacy grade (birds-eye speedwell): 4 (weed kill ratio 70% or more, less than 90%); N: chickweed, weedkilling efficacy grade (chickweed): 3 (weed kill ratio 40% or more, less than 70%); c: corn, effect on crop grade (corn): 0 (weed kill ratio 5% or less (practically no effect)); b: directly sown rice, effect on crop grade (directly sown rice): 3 (weed kill ratio 40% or more, less than 70%); L: redroot pigweed, weedkilling efficacy grade (redroot pigweed): 0 (weed kill ratio 5% or less (practically no effect)); e: wheat, effect on crop grade (wheat): 1 (weed kill ratio 5% or more, less than 20%) |

Source: patent US9738634B2, “Heterocyclic amide compound and herbicide” (SYNGENTA PARTICIPATIONS AG, priority 2013, dated 2017)
